Measurements from the supplement of paper PMC11061612.

Columns and labels:
Test in all cases: combination Emax (second highest fraction inhibited in the dose matrix, 72 h); higher = more inhibition; extreme values may be limits of the assay
[1] = tested on: 22RV1 (Prostate Carcinoma)
In short: (§1)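 Cell lines grown in DMEM/F12 or RPMI with 10% FBS were plated in 1536-well plates and held 24 hours at 37°C, 5% CO2 before 72 hours of exposure to two-drug dose matrices, with DMSO typically at 0.2%. CellTiter-Glo 2.0 luminescence gave viability, which was converted to inhibition. Vehicle wells were set to 0 and blank wells to 1. Combination Emax is the second-highest inhibition in the matrix, and Bliss excess is the observed combination effect minus the expected EA + EB − EA·EB, where EA and EB are the single-agent effects.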

[2] = tested on: 5637 (Bladder Carcinoma)
In short: as §1

[3] = tested on: A101D (Melanoma)
In short: as §1

[4] = tested on: CESS (Acute Myeloid Leukemia)
In short: as §1

[5] = tested on: DMS-53 (Small Cell Lung Carcinoma)
In short: as §1

[6] = tested on: EPLC-272H (Other Solid Carcinomas)
In short: as §1

[7] = tested on: ESO26 (Esophageal Adenocarcinoma)
In short: as §1

[8] = tested on: EW-7 (Ewing's Sarcoma)
In short: as §1

[9] = tested on: HCC1428 (Breast Carcinoma)
In short: as §1

[10] = tested on: HT55 (Colorectal Carcinoma)
In short: as §1

[11] = tested on: JIMT-1 (Breast Carcinoma)
In short: as §1

[12] = tested on: Jurkat (T-Lymphoblastic Leukemia)
In short: as §1

[13] = tested on: KP-N-YN (Neuroblastoma)
In short: as §1

[14] = tested on: MDA-MB-436 (Breast Carcinoma)
In short: as §1

[15] = tested on: MHH-ES-1 (Ewing's Sarcoma)
In short: as §1

[16] = tested on: NCI-H1703 (Squamous Cell Lung Carcinoma)
In short: as §1

[17] = tested on: NCI-H441 (Lung Adenocarcinoma)
In short: as §1

[18] = tested on: PEO1 (Ovarian Carcinoma)
In short: as §1

[19] = tested on: SK-HEP-1 (Hepatocellular Carcinoma)
In short: as §1

[20] = tested on: huH-1 (Hepatocellular Carcinoma)
In short: as §1

Row | SMILES | combination Emax [1] | combination Emax [2] | combination Emax [3] | combination Emax [4] | combination Emax [5] | combination Emax [6] | combination Emax [7] | combination Emax [8] | combination Emax [9] | combination Emax [10] | combination Emax [11] | combination Emax [12] | combination Emax [13] | combination Emax [14] | combination Emax [15] | combination Emax [16] | combination Emax [17] | combination Emax [18] | combination Emax [19] | combination Emax [20]
1 | CC(=O)Nc1cccc(-n2c(=O)n(C3CC3)c(=O)c3c(Nc4ccc(I)cc4F)n(C)c(=O)c(C)c32)c1 [Trametinib] + Cc1nc(-c2cn3c(n2)-c2ccc(-c4cnn(C(C)(C)C(N)=O)c4)cc2OCC3)n(C(C)C)n1 [Taselisib] (first compound max 1 µM, 7x7, partner max 10 µM) | 0.704 | 0.989 | 0.923 | 0.66 | 0.294 | 1 | 0.746 | 1 | 0.278 | 0.859 | 0.631 | 0.692 | 0.528 | 0.527 | 0.563 | 0.759 | 0.639 | 0.825 | 0.561 | 0.688
2 | C=CCn1c(=O)c2cnc(Nc3ccc(N4CCN(C)CC4)cc3)nc2n1-c1cccc(C(C)(C)O)n1 [AZD1775] + O=C(c1cc(Cc2n[nH]c(=O)c3ccccc23)ccc1F)N1CCN(C(=O)C2CC2)CC1 [Olaparib] (first compound max 1 µM, partner max 10 µM) | 0.323 | 0.836 | 0.604 | 0.916 | 0.148 | 0.761 | 0.474 | 0.82 | 0.375 | 0.454 | 0.558 | 0.842 | 0.723 | 0.271 | 0.886 | 0.962 | 0.472 | 0.384 | 0.462 | 0.634
3 | COc1nnc2ccc(N3CCC(c4ccc(OCCN5CCN(C)C(=O)[C@H]5C)cc4)CC3)nn12 [AZD5153] + Cn1cnc2c(F)c(Nc3ccc(Br)cc3Cl)c(C(=O)NOCCO)cc21 [Selumetinib] (first compound max 1 µM, 7x7, partner max 10 µM) | 0.555 | 0.81 | 0.872 | 0.606 | 0.426 | 0.868 | 0.709 | 0.357 | 0.728 | 0.857 | 0.426 | 0.594 | 0.369 | 0.217 | 0.707 | 0.626 | 0.453 | 0.483 | 0.234 | 0.438
4 | CC1(C)CCC(CN2CCN(c3ccc(C(=O)NS(=O)(=O)c4ccc(NCC5CCOCC5)c([N+](=O)[O-])c4)c(Oc4cnc5[nH]ccc5c4)c3)CC2)=C(c2ccc(Cl)cc2)C1 [Venetoclax] + Cc1cc2ncnn2cc1Nc1ncc2c(n1)n(C1CCOCC1)c(=O)n2C [AZD7648] (first compound max 1 µM, 7x7, partner max 10 µM) | 0.456 | 0.251 | 0.451 | 0.327 | 0.428 | 0.514 | 0.134 | 0.95 | 0.139 | 0.205 | 0.242 | 0.303 | 0.542 | 0.22 | 0.26 | 0.465 | 0.264 | 0.163 | 0.219 | 0.162
5 | CC1(C)CCC(CN2CCN(c3ccc(C(=O)NS(=O)(=O)c4ccc(NCC5CCOCC5)c([N+](=O)[O-])c4)c(Oc4cnc5[nH]ccc5c4)c3)CC2)=C(c2ccc(Cl)cc2)C1 [Venetoclax] + C=CCn1c(=O)c2cnc(Nc3ccc(N4CCN(C)CC4)cc3)nc2n1-c1cccc(C(C)(C)O)n1 [AZD1775] (first compound max 1 µM, partner max 1 µM) | 0.513 | 0.861 | 0.736 | 0.966 | 0.694 | 0.761 | 0.682 | 0.974 | 0.22 | 0.664 | 0.573 | 0.907 | 0.981 | 0.231 | 0.776 | 0.977 | 0.489 | 0.337 | 0.34 | 0.501
6 | CC1(C)CCC(CN2CCN(c3ccc(C(=O)NS(=O)(=O)c4ccc(NCC5CCOCC5)c([N+](=O)[O-])c4)c(Oc4cnc5[nH]ccc5c4)c3)CC2)=C(c2ccc(Cl)cc2)C1 [Venetoclax] + CN(C)CCCOc1ccc(-c2ccc3ncc4c(c3c2)n(C2CCOCC2)c(=O)n4C)cn1 [AZD0156] (first compound max 1 µM, 7x7, partner max 1 µM) | 0.423 | 0.15 | 0.365 | 0.142 | 0.44 | 0.395 | 0.0967 | 0.944 | 0.161 | 0.173 | 0.167 | 0.161 | 0.528 | 0.168 | 0.487 | 0.407 | 0.25 | 0.134 | 0.158 | 0.171
